Data from patent publication US10570129B2 (Zoetis Services LLC, priority 2015, dated 2020).

How the values were obtained:
Haemonchus contortus L3 = experiment: microbe, parasite or virus in culture; assay type: cell-based; conditions: Haemonchus contortus, 96 h, read-out: HcL3 Minimal Effective Concentration (MEC)
D. immitis microfilariae = experiment: Dirofilaria immitis, microfilariae (DiMF) in vitro motility assay; assay type: cell-based; conditions: Dirofilaria immitis, 72 h, read-out: DiMF minimally effective dose (MEC)

Row | Compound | minimal effective concentration (Haemonchus contortus L3) [µM] | minimal effective concentration (D. immitis microfilariae) [µM]
1 | O=C(NCc1ccnc(Cl)c1)n1c2c(c3ccc(OC(F)(F)F)cc31)CN(C/C=C/c1ccc(Cl)cc1F)CC2 [Example 340, (E)-2-(3-(4-chloro-2-fluorophenyl)allyl)-N-((2-chloropyridin-4-yl)methyl)-7-(trifluoromethoxy)-1,2,3,4-tetrahydro-5H-pyrido[4,3-b]indole-5-carboxamide] | 0.3 | 5.7
2 | O=C(NCc1ccnc(Cl)c1)n1c2c(c3ccc(OC(F)(F)F)cc31)CN(C/C=C/c1c(F)cc(F)cc1F)CC2 [Example 341, (E)-N-((2-chloropyridin-4-yl)methyl)-7-(trifluoromethoxy)-2-(3-(2,4,6-trifluorophenyl)allyl)-1,2,3,4-tetrahydro-5H-pyrido[4,3-b]indole-5-carboxamide] | 3.3 | 5.7
3 | O=C(NCc1ccnc(Cl)c1)n1c2c(c3ccc(OC(F)(F)F)cc31)CN(C/C=C/c1ccc(C(F)(F)F)cn1)CC2 [Example 342, (E)-N-((2-chloropyridin-4-yl)methyl)-7-(trifluoromethoxy)-2-(3-(5-(trifluoromethyl)pyridin-2-yl)allyl)-1,2,3,4-tetrahydro-5H-pyrido[4,3-b]indole-5-carboxamide] | 1.8 | 10
4 | O=C(NCc1ccnc(Cl)c1)n1c2c(c3c(OC(F)(F)F)cccc31)CN(C/C=C/c1ccc(C(F)(F)F)cn1)CC2 [Example 343, (E)-N-((2-chloropyridin-4-yl)methyl)-9-(trifluoromethoxy)-2-(3-(5-(trifluoromethyl)pyridin-2-yl)allyl)-1,2,3,4-tetrahydro-5H-pyrido[4,3-b]indole-5-carboxamide] | 33 | 3.3
5 | N#Cc1ccc(/C=C/CN2CCc3c(c4ccc(OC(F)(F)F)cc4n3C(=O)NCc3ccnc(Cl)c3)C2)cc1F [Example 345, (E)-N-((2-chloropyridin-4-yl)methyl)-2-(3-(4-cyano-3-fluorophenyl)allyl)-7-(trifluoromethoxy)-1,2,3,4-tetrahydro-5H-pyrido[4,3-b]indole-5-carboxamide] | 0.5 | 18.2
6 | O=C(NCc1ccnc(Cl)c1)n1c2c(c3ccc(OC(F)(F)F)cc31)CN(C/C=C/c1ccc(F)cc1Cl)CC2 [Example 346, (E)-2-(3-(2-chloro-4-fluorophenyl)allyl)-N-((2-chloropyridin-4-yl)methyl)-7-(trifluoromethoxy)-1,2,3,4-tetrahydro-5H-pyrido[4,3-b]indole-5-carboxamide] | 0.5 | 1.8
7 | O=C(NCc1ccnc(Cl)c1)n1c2c(c3ccc(OC(F)(F)F)cc31)CN(C/C=C/c1ccc(F)cc1F)CC2 [Example 347, (E)-N-((2-chloropyridin-4-yl)methyl)-2-(3-(2,4-difluorophenyl)allyl)-7-(trifluoromethoxy)-1,2,3,4-tetrahydro-5H-pyrido[4,3-b]indole-5-carboxamide] | 2.4 | 2.4
8 | O=C(NCc1ccnc(Cl)c1)n1c2c(c3ccc(OC(F)(F)F)cc31)CN(C/C=C/c1ccc(F)c(Cl)c1)CC2 [Example 348, (E)-2-(3-(3-chloro-4-fluorophenyl)allyl)-N-((2-chloropyridin-4-yl)methyl)-7-(trifluoromethoxy)-1,2,3,4-tetrahydro-5H-pyrido[4,3-b]indole-5-carboxamide] | 1 | 24.5
9 | O=C(NCc1ccnc(Cl)c1)n1c2c(c3ccc(OC(F)(F)F)cc31)CN(C/C=C/c1cc(F)c(F)c(F)c1)CC2 [Example 350, (E)-N-((2-chloropyridin-4-yl)methyl)-7-(trifluoromethoxy)-2-(3-(3,4,5-trifluorophenyl)allyl)-1,2,3,4-tetrahydro-5H-pyrido[4,3-b]indole-5-carboxamide] | 0.2 | 1.3
10 | N#Cc1ccc(/C=C/CN2CCc3c(c4ccc(OC(F)(F)F)cc4n3C(=O)NCc3ccnc(Cl)c3)C2)cc1 [Example 351, (E)-N-((2-chloropyridin-4-yl)methyl)-2-(3-(4-cyanophenyl)allyl)-7-(trifluoromethoxy)-1,2,3,4-tetrahydro-5H-pyrido[4,3-b]indole-5-carboxamide] | 0.7 | 32.3
11 | N#Cc1ccc(/C=C/CN2CCc3c(c4c(OC(F)(F)F)cccc4n3C(=O)NCc3ccnc(Cl)c3)C2)cc1 [Example 352, (E)-N-((2-chloropyridin-4-yl)methyl)-2-(3-(4-cyanophenyl)allyl)-9-(trifluoromethoxy)-1,2,3,4-tetrahydro-5H-pyrido[4,3-b]indole-5-carboxamide] | 33 | 5.7
12 | O=C(NCc1ccnc(Cl)c1)n1c2c(c3ccc(OC(F)(F)F)cc31)CN(C/C=C/c1ccc(Cl)cc1)CC2 [Example 353, (E)-2-(3-(4-chlorophenyl)allyl)-N-((2-chloropyridin-4-yl)methyl)-7-(trifluoromethoxy)-1,2,3,4-tetrahydro-5H-pyrido[4,3-b]indole-5-carboxamide] | 1 | 18.2
13 | O=C(NCc1ccnc(Cl)c1)n1c2c(c3c(OC(F)(F)F)cccc31)CN(C/C=C/c1ccc(Cl)cc1)CC2 [Example 354, (E)-2-(3-(4-chlorophenyl)allyl)-N-((2-chloropyridin-4-yl)methyl)-9-(trifluoromethoxy)-1,2,3,4-tetrahydro-5H-pyrido[4,3-b]indole-5-carboxamide] | 57.4 | 18.2
14 | O=C(NCc1ccnc(Cl)c1)n1c2c(c3ccc(OC(F)(F)F)cc31)CN(C/C=C/c1ccc(Cl)c(Cl)c1)CC2 [Example 355, (E)-N-((2-chloropyridin-4-yl)methyl)-2-(3-(3,4-dichlorophenyl)allyl)-7-(trifluoromethoxy)-1,2,3,4-tetrahydro-5H-pyrido[4,3-b]indole-5-carboxamide] | 1 | 69.1
15 | O=C(NCc1ccnc(Cl)c1)n1c2c(c3c(OC(F)(F)F)cccc31)CN(C/C=C/c1ccc(F)cc1)CC2 [Example 357, (E)-N-((2-chloropyridin-4-yl)methyl)-2-(3-(4-fluorophenyl)allyl)-9-(trifluoromethoxy)-1,2,3,4-tetrahydro-5H-pyrido[4,3-b]indole-5-carboxamide] | 10 | 3.3
16 | COc1ccc(/C=C/CN2CCc3c(c4ccc(OC(F)(F)F)cc4n3C(=O)NCc3ccnc(Cl)c3)C2)cc1 [Example 358, (E)-N-((2-chloropyridin-4-yl)methyl)-2-(3-(4-methoxyphenyl)allyl)-7-(trifluoromethoxy)-1,2,3,4-tetrahydro-5H-pyrido[4,3-b]indole-5-carboxamide] | 1.3 | 7.6
17 | COc1ccc(/C=C/CN2CCc3c(c4c(OC(F)(F)F)cccc4n3C(=O)NCc3ccnc(Cl)c3)C2)cc1 [Example 359, (E)-N-((2-chloropyridin-4-yl)methyl)-2-(3-(4-methoxyphenyl)allyl)-9-(trifluoromethoxy)-1,2,3,4-tetrahydro-5H-pyrido[4,3-b]indole-5-carboxamide] | 3.3 | 3.3
